According to patent US9974771B2 (priority 2016, dated 2018):
Read-outs that look alike come from different tables or passages of the source.

What was measured:
[1] = test system: PrP^Sc in persistently prion (strain 22L) infected ScCAD5 cells; assay type: cell-based, mouse; details: AR-12 1-5 μM, 72 hours, ScCAD5 22L; FIG. 3A
[2] = test system: PrP^Sc in persistently prion (strain 22L) infected ScN2a cells; assay type: cell-based, mouse
LC3-II [3] = assay type: cell-based, mouse
LC3-II [4] = assay type: cell-based, mouse; remark: listed apart in the source
[5] = test system: PrP^Sc in ScMEFs infected with prion strains 22L, Me7 or RML; assay type: cell-based, mouse; details: AR-12 3 μM, 72 hours, ScMEF strains 22L, FIG. 4A
[6] = test system: PrP^Sc in Atg5-KO ScN2a cells (strain 22L); assay type: cell-based, mouse

Row | Molecule | PrP^Sc levels (+PK) [1] | reduction of PrP^Sc (+PK) ([2]; AR-12 3 μM, 3 days (72 hours), ScN2a 22L, vs DMSO, FIG. 2A) [%] | reduction of PrP^Sc (+PK) ([2]; AR-12 3 μM, 72 hours, wild-type ScN2a cells, FIG. 8B) [%] | XTT toxicity at concentrations used (ScN2a cells) | LC3-II induction, comparison of cell lines (LC3-II [3]) | LC3-II levels (LC3-II [3]) | LC3-II induction (LC3-II [4]) | XTT toxicity at concentrations used (ScCAD5 cells) | PrP^Sc (+PK) [5] | reduction of PrP^Sc (+PK) [6] | XTT toxicity at concentrations used (ScMEF cells) | reduction of PrP^Sc (+PK) ([2]; AR-14 2 μM, 72 hours, wild-type ScN2a cells, FIG. 8C) [%] | reduction of PrP^Sc (+PK) ([2]; AR-14 at a concentration of 2, 3 days (72 hours), ScN2a 22L, FIG. 5A) [%] | concentration at which already effective in reducing PrP^Sc ([2]; AR-14 tested at 0.5, 0.75 and 1.0 μM, 72 hours, ScN2a 22L, FIG. 5C) [µM]
1 | NCC(=O)Nc1ccc(-n2nc(C(F)(F)F)cc2-c2ccc3c(ccc4ccccc43)c2)cc1 [AR-12, 2-amino-N-(4-(5-(phenanthren-2-yl)-3-(trifluoromethyl)-1H-pyrazol-1-yl)phenyl)acetamide] | reduced, although slightly less than in ScN2a cells | 100 | ≥ 90 | non-toxic concentrations | lowest induction was found in CAD5 cells | time dependent and pronounced increase in LC3-II levels | about 2 fold | non-toxic concentrations | strongly reduced | about 50% | non-toxic concentrations | – | – | –
2 | NCCCC[C@H](N)C(=O)Nc1ccc(-n2nc(C(F)(F)F)cc2-c2ccc3c(ccc4ccccc43)c2)cc1 [AR-14] | – | – | – | non-toxic concentrations | lowest induction was found in CAD5 cells | time dependent and pronounced increase in LC3-II levels | – | – | – | about 50% | – | 100 | 100 | 0.75
3 | bafilomycin A1 [BA1, reference compound] | – | – | – | – | – | highest expression level of LC3-II | – | – | – | – | – | – | – | –
